For this experiment, the system named is mouse pancreatic β-cell. The experiment is described as follows: mouse pancreatic β-cell proliferation (Ki-67/insulin staining). The format is cell-based. As to conditions: mouse pancreatic β-cells cultured with compound for 72 hours. The procedure: It is known that when human β-cells are treated with harmine that inhibits DYRK1A, the proliferation of β-cells is promoted by increasing the transcription factor activity by inhibiting the phosphorylation of NFAT known as a phosphorylation substrate of DYRK1A.
Particularly, pancreatic Langerhans islet tissues were extracted from the mouse at 8 weeks old, followed by culture in RPMI1640 medium supplemented with 10% FCS (fetal calves serum), 5.5 mM glucose and 1% penicillin-streptomycin for 24 hours.
Next, in order to separate β-cells as single cells from the Langerhans islet, cells were washed twice with PBS, followed by centrifugation. The collected cells were left in the medium supplemented with 1 mg/ml of trypsin for 10 minutes at 37° C. The cells were shaken using a pipette every 10 seconds for 5 minutes. Trypsin reaction was terminated by adding RPMI1640 containing 10% FCS (fetal calves serum), 5.5 mM glucose and 1% penicillin-streptomycin, followed by centrifugation to collect single cells.
Then, the single cells were loaded on the laminin-coated cover glass and stabilized for 24 hours. The cells were cultured in the medium containing the compound of the present invention for 72 hours. […] The cells double-stained with Ki-67/insulin were counted under Olympus F-1000 confocal fluorescence microscope to investigate cell proliferation.

Turning to `COc1ccc2c(c1)[nH]c1c(C)nccc12` [harmine, reference compound], the cell proliferation entry is “active”.

Values taken from patent US11117892B2, “Pyrrolo-pyridine derivative compound, method for preparing same, and pharmaceutical composition containing same as active ingredient for prevention or treatment of protein kinase-related diseases” (DAEGU-GYEONGBUK MEDICAL INNOVATION FOUNDATION, priority 2017, dated 2021).
